In US12624039B2, “BTK inhibitors” (DIZAL (JIANGSU) PHARMACEUTICAL CO., LTD., priority 2020, dated 2026):
Where two headings read alike, the source gives them in different places.

How the values were obtained:
[1] = system: TMD-8 cells; assay: TMD-8 anti-proliferation assay; assay type: cell-based; settings: 72 hours
Procedure: TMD-8 Anti-Proliferation Assay
TMD-8 cells were prepared in RPMI1640 media containing 10% foetal bovine, and plated in 384 well plates at 1500 cells per well, The cells were incubated overnight at 37° C., 5% CO2. After incubation, compounds with different concentration were added to the assay plates and incubate cells for a further 72 hours at 37° C., 5% CO2. Following 72 hours incubation, 15 μl of CellTiter 96® AQueous One Solution Reagent was added to each well and the plates incubated at room temperature for 30 mins. Cell viability was determined using the CellTiter-Glo (Promega, USA). The CellTiter-Glo assay was performed according to the manufacturer's instructions, and luminescence was determined in a multi-label reader (Envision, PerkinElmer, USA). The data were processed in XLfit software.

[2] = In vitro plasma and brain binding assay (free fractions); assay type: in vitro ADME, rat
Procedure: A Short oral absorption (SOA) model is an in-vivo screening model to identify brain penetration of a compound. To evaluate the potential of a compound to cross the blood-brain barrier in rats, total brain-to-plasma ratio (Kp,brain) was measured AUCbrain/AUCplasma. CSF-to-plasma ratio (Kp,CSF) was determined by either AUCCSF/AUCplasma or the average of CSF-to-plasma ratios at available time points after oral administration, respectively. Free fractions of in biological matrix were determined by in vitro plasma and brain binding assay in a separate study. Kp,uu,brain and Kp,uu,CSF were calculated by the following equations: (1) Kp,uu,brain=Kp, brain×fu,brain/fu,plasma; (2) Kp,uu,CSF=Kp,CSF/fu,plasma.

[3] = Hu Mic Clint; assay type: in vitro ADME, human; settings: for microsomal CLint: human, microsomes
[4] = target: T1, Recombinant BTK wild type (BTK WT) (Homo sapiens, UniProt Q06187); assay: BTK WT HTRF kinase assay; assay type: biochemical; settings: 30 min pre-incubation, 120 min reaction
T1 construct: purchased Thermo fisher
Procedure: Recombinant BTK wild type (BTK WT) was purchased from Thermo fisher.
In brief, recombinant kinases were pre-incubated in the presence or absence of compound at room temperature for 30 minutes. The reaction was initiated by the addition of the ATP and substrate peptide which could be phosphorylated by kinases in the reaction. After 120 minutes incubation, the reaction was stopped by the addition of the detection reagent mix containing EDTA.

[5] = In vitro human hepatocytes clearance assay; assay type: in vitro ADME
Procedure: (§1) In Vitro Rat/Human Hepatocytes Clearance Assay
(§2) Rat hepatocytes in male gender and human hepatocytes in mixed gender were obtained from commercial vendors (e.g., BioreclamationIVT) and stored at −150° C. prior to use. 10 mM stock solutions of tested compounds were prepared in DMSO. Thawing medium and supplement incubation medium (serum-free) were placed in a 37° C. water bath for at least 15 minutes prior to use. Stock solutions were diluted to 100 μM by combining 198 μL acetonitrile and 2 μL of 10 mM stock solution.
(§3) Vials of cryopreserved hepatocytes were removed from storage, ensured that vials remain at cryogenic temperatures. The vials were thawed in a 37° C. water bath with gently shaking. Vials were kept in a water bath until all ice crystals had dissolved and were no longer visible. Vials were sprayed with 70% ethanol before being transferred to a biosafety cabinet. And then the contents were poured into the 50 mL thawing medium conical tube. Vials were centrifuged at 100 g for 10 minutes at room temperature. Thawing medium was aspirated and hepatocytes were resuspended with serum-free incubation medium to yield ^˜1.5×10^6 cells/mL.
(§4) Cell viability and density were counted using a Trypan Blue exclusion, and then cells were diluted with serum-free incubation medium to a working cell density of 1×10^6 viable cells/ml. A portion of the hepatocytes at 1×10^6 viable cells/mL was boiled for 10 min prior to adding to the plate as negative control to eliminate the enzymatic activity so that little or no substrate turnover should be observed. The inactivated hepatocytes were used to prepare negative samples, which were used to exclude the misleading factor that resulted from instability of chemical itself.
(§5) Aliquots of 247.5 μL hepatocytes were dispensed into each well of a 96-well non-coated plate. The plate was placed in the incubator on an orbital shaker for approximately 10 minutes. Aliquots of 2.5 μL of the 100 μM test compounds were added into respective wells of the non-coated 96-well plate to start the reaction. This assay was performed in duplicate. The plate was incubated in the incubator on an orbital shaker for the designed time points. 20 μL of contents were transferred and mixed with 6 volumes (120 μL) of cold acetonitrile with internal standard to terminate the reaction at time points of 5, 15, 30, 45, 60, 80 and 100 minutes. Samples were centrifuges for 20 minutes at 4000 g and aliquots of 100 μl of the supernatants were used for LC-MS/MS analysis for measurement of test compounds.
(§6) In vitro hepatocyte clearance was estimated based on determination of elimination half-life (T1/2) of compounds disappearance from their initial concentrations. Peak area ratios of each compound (test or control) to IS was calculated. Ln (% Control) versus Incubation Time (min) curve was plotted, and the slope of a linear fitting line was calculated. Drug elimination rate constant k (min-1), T1/2 (min), and in vitro intrinsic clearance CLint (μL/min/E6) was calculated according to the following equations: k=−slope T1/2=0.693/k CLint=k/Chep • Where Chep (cells×μL-1) is the cell concentration in the incubation system. Procedure for Log D Determination

[6] = target: T2, BTK(WT) in HEK293-BTK(WT) cells (Homo sapiens, UniProt Q06187); assay: HEK293-BTK(WT) p-BTK ELISA; assay type: cell-based; settings: 1.5 hour
T2 construct: Full-length cDNAs of BTK containing C481S mutation was generated by mutagenesis; expressed in transfected cells
Procedure: (§7) The mutated BTK cDNAs were confirmed by sequencing. […] The transfected cells were selected in 2 μg/mL of puromycin. Stable polyclonal cell lines were confirmed by WB and used for further study. […] All the cells were maintained in a humidified incubator at 37° C. with 5% CO2.
(§8) The test compounds were added to the cells and cells were incubated for 1.5 hour at 37° C., 5% CO2. […] The plate was read on a Multiscan Spectrum reader set to 450 nm wavelengths. The data were processed in Graph Pad Prism software.

[7] = In vitro rat hepatocytes clearance assay; assay type: in vitro ADME
Procedure: as §1, §2, §3, §4, §5, §6

[8] = target: T3, p-BTK (Phospho-Btk Tyr223) in TMD-8 cells (Homo sapiens, UniProt Q06187); assay: TMD8 cell line p-BTK Elisa assay; assay type: cell-based; settings: for Maximal Inhibition Level: p-BTK ELISA; for IC50: pervanadate 100 μM, Tyr223 ELISA
T3 construct: endogenous in cells; host or cells: TMD-8
Procedure: The test compounds were added to the cells and cells were incubated for 0.5 hour at 37° C., 5% CO2. Then pervanadate solution was added to the cells to make a final concentration of 100 μM, and cells were incubated for a further 1 hour at 37° C., 5% CO2. […] The plate was read on a Multiscan Spectrum reader set to 450 nm wavelengths.

[9] = target: T4, BTK-C481S in HEK293-BTK(C481S) cells (Homo sapiens, UniProt Q06187, C481S); assay: HEK293-BTK(C481S) p-BTK ELISA; assay type: cell-based; settings: 1.5 hour
T4 construct: Full-length cDNAs of BTK containing C481S mutation was generated by mutagenesis; expressed in transfected cells
Procedure: as §7, §8

[10] = rat brain free fraction, read-out: Rat fu, br (%)
[11] = rat plasma free fraction, read-out: Rat fu, pl (%)

T3 sequence (Q06187 whole entry): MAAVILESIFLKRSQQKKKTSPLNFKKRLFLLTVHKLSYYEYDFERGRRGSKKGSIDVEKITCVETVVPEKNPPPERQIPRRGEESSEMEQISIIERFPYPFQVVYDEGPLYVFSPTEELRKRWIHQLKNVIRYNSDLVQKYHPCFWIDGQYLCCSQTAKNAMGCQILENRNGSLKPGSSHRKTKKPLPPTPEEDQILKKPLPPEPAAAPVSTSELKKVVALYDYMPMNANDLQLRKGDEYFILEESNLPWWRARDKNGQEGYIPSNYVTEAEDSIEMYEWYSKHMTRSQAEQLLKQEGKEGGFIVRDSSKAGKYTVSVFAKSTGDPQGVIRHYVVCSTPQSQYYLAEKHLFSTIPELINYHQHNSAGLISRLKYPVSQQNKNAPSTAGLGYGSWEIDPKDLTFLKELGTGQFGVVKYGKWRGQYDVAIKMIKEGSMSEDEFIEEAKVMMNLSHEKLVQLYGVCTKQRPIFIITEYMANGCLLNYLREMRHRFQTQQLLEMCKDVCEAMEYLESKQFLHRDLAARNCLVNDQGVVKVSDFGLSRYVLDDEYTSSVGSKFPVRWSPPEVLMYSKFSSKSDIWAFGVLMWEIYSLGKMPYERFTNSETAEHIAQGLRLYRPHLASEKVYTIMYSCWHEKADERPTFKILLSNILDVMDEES
T1 sequence (Q06187 whole entry): as above
T4 sequence (Q06187 whole entry C481S): as the sequence (Q06187 whole entry) above, with C481S counted along it

| fraction unbound [2, 10] | fraction unbound [2, 11] | microsomal CLint [3] [µL/min/mg] | IC50 [4] [nM] | Human Hep Clint [5] [μL/min/10∧6 cells] | IC50 [6] [nM] | Rat Hep Clint [7] [μL/min/10∧6 cells] | Maximal Inhibition Level [8] [%] | IC50 [8] [nM] | IC50 [9] [nM] | Hu Mic Clint [3] [µL/min/mg] | Compound | IC50 [1] [nM] |
| --- | --- | --- | --- | --- | --- | --- | --- | --- | --- | --- | --- | --- |
| 0.033 | 0.038 | 12.7 | 0.6 | 4.6 | 27.3 | 6.1 | 98.4 | 29.1 | 70.6 |  | Nc1nccn2c(C3CCC(CO)OC3)nc(-c3ccc(Oc4ccccc4)cc3F)c12 (single isomer, unassigned) [Compound 2, Trans-(5-(8-amino-1-(2-fluoro-4-phenoxyphenyl)imidazo[1,5-a]pyrazin-3-yl)tetrahydro-2H-pyran-2-yl)methanol] | 22.7 |
| 0.022 | 0.037 |  | 0.9 | 1.7 | 60 | 17.1 | 98.5 | 29 | 170 | 7.0 | Nc1ncnn2c(C3CCC(CO)OC3)nc(-c3ccc(Oc4ccccc4)cc3F)c12 (single isomer, unassigned) [Compound 10, Trans-(5-(4-amino-5-(2-fluoro-4-phenoxyphenyl)imidazo[5,1-f][1,2,4]triazin-7-yl)tetrahydro-2H-pyran-2-yl)methanol] | 32.2 |
| 0.015 | 0.02 | < 3 | 0.7 | 2.5 | 16 | 9.48 | 98.0 | 24.3 | 36.3 |  | Nc1ncnn2c(C3CCC(CO)OC3)nc(-c3ccc(Oc4cccc(F)c4F)cc3)c12 (centres unmarked) [Compound 14, (5-(4-amino-5-(4-(2,3-difluorophenoxy)phenyl)imidazo[5,1-f][1,2,4]triazin-7-yl)tetrahydro-2H-pyran-2-yl)methanol] |  |
